The results in this text go back to US20080221088A1, “3,4-Substituted Thiazoles as Ampk Activators” (priority 2005, published 2008).

Each structure is given as a SMILES string.

For series [1], the system named is AMPK. The experiment in a line: AMPK activation potential, cell based ELISA with p-AMPK specific antibody, L6 muscle cells. Conditions: 24 hours incubation, normalized to metformin at 2 mM as 100%. On the procedure: (§1) AMPK activation potential percentages are obtained by normalizing the values obtained at the concentrations in the range of 2 nM-10 μM with that of metformin by considering the values obtained for metformin at 2 mM concentrations as 100%.
(§2) AMPK activation potential of the compounds of formula (I) was evaluated using a cell based ELISA approach. Skeletal muscle (L6 muscle) and hepatoma (Hep G2) liver cells were cultured for 48 hours prior to drug addition at various concentrations. Twenty four (24) hours later, the cells were fixed and the ELISA plate developed following standard protocol using p-AMPK specific antibody.
(§3) Various cell lines such as HepG2 and L6 were revived from glycerol stocks (ATCC). The cells were maintained in a T 75 culture flask-containing medium (DMEM+10% fetal calf serum). On reaching a confluence of 70 to 80%, the cells was seeded in a 96 well plate at a density of 10×10^3 cells per well in DMEM+10% FCS medium. The plates are then incubated at 37° C. with 5% CO2 for 48 hours. Various concentrations of drugs were prepared in DMSO and diluted to required concentration with the medium and incubated at 37° C. with 5% CO2 for 24 hours. Cells were fixed with 4% formaldehyde in PBS for 30 minutes at 25-35° C. and washed three times with PBS containing 0.1% Triton X-100. Endogenous peroxidase was quenched with 0.6% H2O2 in PBS-T for 30 minutes and washed three times in PBS-T. Then the cells were blocked with 10% FCS in PBS-T for 1 hour. The cells were incubated for 8-12 hours with various concentrations of primary antibody in PBS-T containing 5% BSA at 4° C. The cells were then washed three times with PBS-T for 5 minutes and incubated with secondary antibody (HRP conjugated 1:500 in PBS-T with 5% BSA for 1 hour at 25-35° C. The cells were washed three times with PBS-T for 5 minutes and twice with PBS. The cells were incubated with 100 μl TMB/H2O2 color developing solution for 15 minutes and the reaction was stopped with 50 μl of 1M H2SO4. Then the plate was read at 460 nm using ELISA plate reader.
(§4) (AMPK activation potential percentages are obtained by normalizing the values obtained at 10 μM concentration with that of metformin by considering the values obtained for metformin at 2 mM concentrations as 100%).
On the technique in general: An ELISA detects its analyte on a solid surface through an enzyme-linked reagent.

The subject of series [2] is AMPK. The experiment in a line: AMPK activation potential, cell based ELISA with p-AMPK specific antibody, Hep G2 cells. Conditions: HepG-2 cells, 24 hours incubation, normalized to metformin at 2 mM as 100%. On the procedure: as §1, §2, §3, §4

In general, melting point refers to the temperature, or range, at which the solid turns liquid. The molecule `CCOC(=O)Cc1csc(Nc2ccc(Cl)c(C(F)(F)F)c2)n1` [Example 1, [2-(4-Chloro-3-trifluoromethyl-phenylamino)-thiazol-4-yl]-acetic acid ethyl ester] returned a melting point of 150 to 152 °C. Besides, in the series with AMPK [1], the “AMPK % activation (at 10 μM) L6 muscle cells” value was 88.2%. Besides, in the series with AMPK [2], the “AMPK % activation (at 10 μM) HepG-2 muscle cells” value is 89%.

Molecule `CCOC(=O)Cc1csc(Nc2ccc(Br)c(C(F)(F)F)c2)n1` [Example 1-a, [2-(4-Bromo-3-trifluoromethyl-phenylamino)-thiazol-4-yl]-acetic acid ethyl ester] showed a melting point of 161 to 164 °C.

For `O=C(O)Cc1csc(Nc2ccc(Cl)c(C(F)(F)F)c2)n1` [Example 2, [2-(4-Chloro-3-trifluoromethyl-phenylamino)-thiazol-4-yl]-acetic acid], the “AMPK % activation (at 10 μM) L6 muscle cells” value in the series with AMPK [1] was 91.56%. Further, in the series on AMPK [2], the “AMPK % activation (at 10 μM) HepG-2 muscle cells” value is reported as 102.69%.

Turning to `Cc1ccc(Nc2nc(CC(=O)O)cs2)cc1Cl` [Example 2-b, [2-(3-Chloro-4-methyl-phenylamino)-thiazol-4-yl]-acetic acid], the melting point fell in the range of 142 to 144 °C.

`Cc1ccc(Nc2nc(CC(=O)O)cs2)cc1F` [Example 2-e, [2-(3-Fluoro-4-methyl-phenylamino)-thiazol-4-yl]-acetic acid] showed a melting point of 147 to 148 °C.

Turning to `O=C(O)Cc1csc(Nc2ccc(Br)c(F)c2)n1` [Example 2-g, [2-(4-Bromo-3-fluoro-phenylamino)-thiazol-4-yl]-acetic acid], the melting point fell in the range of 176 to 177 °C.

With `O=C(O)Cc1csc(Nc2ccc(F)c(C(F)(F)F)c2)n1` [Example 2-h, [2-(4-Fluoro-3-trifluoromethyl-phenylamino)-thiazol-4-yl]-acetic acid], the melting point fell in the range of 167 to 169 °C.

In turn, `Cc1ccc(Nc2nc(CC(=O)O)cs2)cc1C(F)(F)F` [Example 2-i, [2-(4-Methyl-3-trifluoromethyl-phenylamino)-thiazol-4-yl]-acetic acid] showed a melting point of 154 to 155 °C.

Molecule `CC(C)(CC(=O)O)c1csc(Nc2ccc(Cl)c(C(F)(F)F)c2)n1` [Example 2-j, 3-[2-(4-Chloro-3-trifluoromethyl-phenylamino)-thiazol-4-yl]-3-methyl-butyricacid] had a melting point of 160 to 165 °C.

For `O=C(O)Cc1csc(Nc2ccc(Br)c(C(F)(F)F)c2)n1` [Example 2a, [2-(4-Bromo-3-trifluoromethyl-phenylamino)-thiazol-4-yl]-acetic acid], the “AMPK % activation (at 10 μM) L6 muscle cells” value in the series with AMPK [1] came to 83.4%. The “AMPK % activation (at 10 μM) HepG-2 muscle cells” value in the series on AMPK [2] is recorded as 91.3%.

In the case of `CNC(=O)Cc1csc(Nc2ccc(Cl)c(C(F)(F)F)c2)n1` [Example 3, 2-[2-(4-Chloro-3-trifluoromethyl-phenylamino)-thiazol-4-yl]-N-methyl-acetamide], the melting point is 148 to 150 °C. For the same molecule, the “AMPK % activation (at 10 μM) L6 muscle cells” value with AMPK [1] came out at 101.20%. The “AMPK % activation (at 10 μM) HepG-2 muscle cells” value with AMPK [2] came out at 102.14%.

`NNC(=O)Cc1csc(Nc2ccc(Cl)c(C(F)(F)F)c2)n1` [Example 3-b, [2-(4-Chloro-3-trifluoromethyl-phenylamino)-thiazol-4-yl]-acetic acid hydrazide]: the melting point lay within 115 to 118 °C.

Consider `NC(=O)Cc1csc(Nc2ccc(Cl)c(C(F)(F)F)c2)n1` [Example 3c, 2-[2-(4-Chloro-3-trifluoromethyl-phenylamino)-thiazol-4-yl]-acetamide], for which the melting point lay within 205 to 207 °C. In addition, the “AMPK % activation (at 10 μM) L6 muscle cells” value in the series with AMPK [1] was 88.1%. Besides, in the series on AMPK [2], the “AMPK % activation (at 10 μM) HepG-2 muscle cells” value came to 102.43%.

Molecule `O=C(Cc1csc(Nc2ccc(Cl)c(C(F)(F)F)c2)n1)Nc1ccc(Cl)c(C(F)(F)F)c1` [Example 4, N-(4-Chloro-3-trifluoromethyl-phenyl)-2-[2-(4-chloro-3-trifluoromethyl-phenylamino)-thiazol-4-yl]-acetamide] came in with a melting point of 108 to 112 °C.

The molecule `COc1ccc(NC(=O)Cc2csc(Nc3ccc(Cl)c(C(F)(F)F)c3)n2)cc1` [Example 4-a, 2-[2-(4-Chloro-3-trifluoromethyl-phenylamino)-thiazol-4-yl]-N-(4-methoxy-phenyl)-acetamide] displayed a melting point of 179 to 180 °C.

With `CC(=O)c1ccc(NC(=O)Cc2csc(Nc3ccc(Cl)c(C(F)(F)F)c3)n2)cc1` [Example 4-b, N-(4-Acetyl-phenyl)-2-[2-(4-chloro-3-trifluoromethyl-phenylamino)-thiazol-4-yl]-acetamide], the melting point lay in the range of 194 to 195 °C.

Molecule `O=C(Cc1csc(Nc2ccc(Cl)c(C(F)(F)F)c2)n1)Nc1ccc(F)cc1` [Example 4-c, 2-[2-(4-Chloro-3-trifluoromethyl-phenylamino)-thiazol-4-yl]-N-(4-fluoro-phenyl)-acetamide] came in with a melting point of 146 to 148 °C.

For the molecule `O=C(Cc1csc(Nc2ccc(Cl)c(C(F)(F)F)c2)n1)Nc1ccncc1` [Example 4-d, 2-[2-(4-Chloro-3-trifluoromethyl-phenylamino)-thiazol-4-yl]-N-pyridin-4-yl-acetamide], the melting point is 178 to 180 °C.

For `CSc1ccc(NC(=O)Cc2csc(Nc3ccc(Cl)c(C(F)(F)F)c3)n2)cc1` [Example 4-e, 2-[2-(4-Chloro-3-trifluoromethyl-phenylamino)-thiazol-4-yl]-N-(4-methylsulfanyl-phenyl)-acetamide], the melting point fell in the range of 151 to 152 °C.

In turn, `CC(=O)Nc1ccc(NC(=O)Cc2csc(Nc3ccc(Cl)c(C(F)(F)F)c3)n2)cc1` [Example 4-f, N-(4-Acetylamino-phenyl)-2-[2-(4-chloro-3-trifluoromethyl-phenylamino)-thiazol-4-yl]-acetamide] registered a melting point of 262 to 263 °C.

As to `O=C(Cc1csc(Nc2ccc(Cl)c(C(F)(F)F)c2)n1)Nc1nccs1` [Example 4-g, 2-[2-(4-Chloro-3-trifluoromethyl-phenylamino)-thiazol-4-yl]-N-thiazol-2-yl-acetamide], the melting point fell in the range of 196 to 198 °C.

For `O=C(Cc1csc(Nc2ccc(Cl)c(C(F)(F)F)c2)n1)Nc1cccnc1` [Example 4-h, 2-[2-(4-Chloro-3-trifluoromethyl-phenylamino)-thiazol-4-yl]-N-pyridin-3-yl-acetamide], the melting point was 191 to 192 °C.

Molecule `O=C(Cc1csc(Nc2ccc(Cl)c(C(F)(F)F)c2)n1)N1CCOCC1` [Example 4-i, 2-[2-(4-Chloro-3-trifluoromethyl-phenylamino)-thiazol-4-yl]-1-morpholin-4-yl-ethanone] returned a melting point of 210 to 211 °C.

The molecule `O=C(Cc1csc(Nc2ccc(Cl)c(C(F)(F)F)c2)n1)N1CCSCC1` [Example 4-j, 2-[2-(4-Chloro-3-trifluoromethyl-phenylamino)-thiazol-4-yl]-1-thiomorpholin-4-yl-ethanone] had a melting point of 185 to 187 °C.

`COc1ccc(CNC(=O)Cc2csc(Nc3ccc(Cl)c(C(F)(F)F)c3)n2)cc1` [Example 4-k, 2-[2-(4-Chloro-3-trifluoromethyl-phenylamino)-thiazol-4-yl]-N-(4-methoxy-benzyl)-acetamide] displayed a melting point of 65 to 70 °C.

In turn, `O=C(O)c1csc(Nc2ccc(Cl)c(C(F)(F)F)c2)n1` [Example 5, 2-(4-Chloro-3-trifluoromethyl-phenylamino)-thiazole-4-carboxylic acid] yielded a melting point of 254 to 256 °C.
